Measurements taken from ChEMBL document CHEMBL5653631, “A Potent and Selective ULK1 Inhibitor Suppresses Autophagy and Sensitizes Cancer Cells to Nutrient Stress” (iScience, 2018).

Biological target: T1, Homeodomain-interacting protein kinase 4 (Homo sapiens) (UniProt Q8NE63)
T1 sequence (whole entry): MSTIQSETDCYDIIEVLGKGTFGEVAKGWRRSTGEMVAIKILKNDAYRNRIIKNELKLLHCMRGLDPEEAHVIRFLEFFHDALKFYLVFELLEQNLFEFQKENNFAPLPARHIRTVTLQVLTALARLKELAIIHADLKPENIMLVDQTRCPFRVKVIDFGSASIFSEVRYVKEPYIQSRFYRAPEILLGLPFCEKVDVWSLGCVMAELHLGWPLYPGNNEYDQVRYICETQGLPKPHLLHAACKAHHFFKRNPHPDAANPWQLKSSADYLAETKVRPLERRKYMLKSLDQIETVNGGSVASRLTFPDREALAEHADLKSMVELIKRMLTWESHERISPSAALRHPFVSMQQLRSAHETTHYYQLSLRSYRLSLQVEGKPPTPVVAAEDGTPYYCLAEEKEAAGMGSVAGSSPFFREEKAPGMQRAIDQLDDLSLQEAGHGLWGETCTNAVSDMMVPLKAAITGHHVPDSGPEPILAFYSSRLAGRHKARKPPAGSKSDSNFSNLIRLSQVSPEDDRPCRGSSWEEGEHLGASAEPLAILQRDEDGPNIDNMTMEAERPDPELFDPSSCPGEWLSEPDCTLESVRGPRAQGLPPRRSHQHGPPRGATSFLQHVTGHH
Experiment: Inhibition of human recombinant HIPK4 at 40 nM in presence of ATP by radiometric assay relative to control

- inhibition: 0%
SMILES: O=C(N[C@@H](C1CC1)C(F)(F)F)c1cc(-c2cnn3cc(-c4ccc(F)cc4)cnc23)cs1
